Values after ≈ are worked out from the molar mass of the structure shown.
Tests used:
[1] = clinical pathology (serum clinical chemistry) in mice; format: in vivo; details: CD-1 mice, 20 mg/kg intravenously daily for 9 days, sera day 10
Procedure: 20-day-old CD-1 mice were divided into a vehicle control group (5 mice) and a treatment group (5 mice). Samples of glycopeptide antibiotics were administered at 20 mg/kg intravenously daily for 9 days.

Escherichia coli = assay: in vitro antibacterial evaluation, MIC by broth dilution; format: cell-based; details: 18 hours at 35° C.
In short: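 MIC is the lowest antibiotic concentration (tested 64-0.06 μg/mL) preventing growth of a 5×10^5 CFU/mL inoculum. Determined by broth dilution in Mueller-Hinton II medium following NCCLS standard M7-A2.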

[2] = anatomic pathology (histopathology of heart and kidney) in mice; format: in vivo; details: CD-1 mice, 20 mg/kg intravenously daily for 9 days, necropsy day 10, microscopic histopathology
Procedure: Samples of tissues from necropsied mice were formalin-fixed, paraffin-embedded, sectioned, stained with hematoxylin and eosin, and examined microscopically. Histopathologic findings were recorded. These findings were subjectively graded on a scale corresponding to slight, mild, moderate, marked and severe as compared to untreated controls.

Enterococcus sp. = assay: in vitro antibacterial evaluation, MIC by broth dilution; format: cell-based; details: broth dilution, 18 hours at 35° C.
In short: (§1)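 Test organisms, which included recent clinical isolates resistant to methicillin, penicillin and/or vancomycin, were inoculated at 5×10^5 CFU/mL into Muller-Hinton II […] containing antibiotic at 64-0.06 μg/mL. Minimum inhibitory concentrations were then read as the lowest level inhibiting growth.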

Streptococcus sp. = assay: as above; format: cell-based; details: broth dilution, 18 hours at 35° C.
In short: as §1

Staphylococcus sp. = assay: as above; format: cell-based; details: broth dilution, 18 hours at 35° C.
In short: as §1

SMILES: CC(c1ccccc1)C1NC(=O)CNC(=O)C(CO)NC(=O)C(C(O)C2CN(CCCCCCCCCCCCO)C(=N)N2C2OC(CO)C(O)C(O)C2O)NC(=O)C(C(O)C2CNC(=N)N2)NC(=O)C(Cc2ccc(OC3OC(CO)C(OC4OC(CO)C(O)C(O)C4O)C(O)C3O)cc2)NC1=O (stereo not drawn) [Example 61, Cyclo[glycyl-β-methylphenylalanyl-O-(4-O-hexopyranosylhexopyranosyl)tyrosl-3-(2-iminoimidazolidin-4-yl)seryl-3-[3-hexopyranosyl-1-(12-hydroxydodecyl)-2-iminoimidazolidin-4-yl]-serylseryl]]
- Clinical Chemistry (Day 10) % of Control, BUN [1]: +157%
- Clinical Chemistry (Day 10) % of Control, Creatinine [1]: +122%
- MIC Escherichia coli (ATCC 25922) (Escherichia coli): 128 µg/mL (≈ 86.5 µM)
- MIC Escherichia coli (GC 4559) (Escherichia coli): 128 µg/mL (≈ 86.5 µM)
- MIC Escherichia coli (GC 4560) (Escherichia coli): 8 µg/mL (≈ 5.41 µM)
- Anatomical Pathology (Day 10), Heart [2]: 0
- Anatomical Pathology (Day 10), Kidney [2]: +++
- MIC Enterococcus avium (GC 4558) (Enterococcus sp.; Enterococcus avium (GC 4558)): 64 µg/mL (≈ 43.3 µM)
- MIC Enterococcus faecalis (ATCC 29212) (Enterococcus sp.; Enterococcus faecalis (ATCC 29212)): 128 µg/mL (≈ 86.5 µM)
- MIC Enterococcus faecalis (GC 4552) (Enterococcus sp.; Enterococcus faecalis (GC 4552)): 128 µg/mL (≈ 86.5 µM)
- MIC Enterococcus faecalis (GC 4553) (Enterococcus sp.; Enterococcus faecalis (GC 4553)): 128 µg/mL (≈ 86.5 µM)
- MIC Enterococcus faecalis (GC 4554) (Enterococcus sp.; Enterococcus faecalis (GC 4554)): 128 µg/mL (≈ 86.5 µM)
- MIC Enterococcus faecalis (GC 6189) (Enterococcus sp.; Enterococcus faecalis (GC 6189)): 128 µg/mL (≈ 86.5 µM)
- MIC Enterococcus faecium (GC 2243) (Enterococcus sp.; Enterococcus faecium (GC 2243)): >128 µg/mL
- MIC Enterococcus faecium (GC 4556) (Enterococcus sp.; Enterococcus faecium (GC 4556)): 128 µg/mL (≈ 86.5 µM)
- MIC Enterococcus faecium (GC 4557) (Enterococcus sp.; Enterococcus faecium (GC 4557)): 128 µg/mL (≈ 86.5 µM)
- MIC Enterococcus avium (GC 4558) (Enterococcus sp.): 64 µg/mL (≈ 43.3 µM)
- MIC Enterococcus faecalis (ATCC 29212) (Enterococcus sp.): 128 µg/mL (≈ 86.5 µM)
- MIC Enterococcus faecalis (GC 2242) (Enterococcus sp.): 128 µg/mL (≈ 86.5 µM)
- MIC Enterococcus faecalis (GC 2691) (Enterococcus sp.): 128 µg/mL (≈ 86.5 µM)
- MIC Enterococcus faecalis (GC 3059) (Enterococcus sp.): 128 µg/mL (≈ 86.5 µM)
- MIC Enterococcus faecalis (GC 4552) (Enterococcus sp.): 128 µg/mL (≈ 86.5 µM)
- MIC Enterococcus faecalis (GC 4553) (Enterococcus sp.): 128 µg/mL (≈ 86.5 µM)
- MIC Enterococcus faecalis (GC 4554) (Enterococcus sp.): 128 µg/mL (≈ 86.5 µM)
- MIC Enterococcus faecalis (GC 6189) (Enterococcus sp.): 128 µg/mL (≈ 86.5 µM)
- MIC Enterococcus faecium (GC 2243) (Enterococcus sp.): >128 µg/mL
- MIC Enterococcus faecium (GC 4556) (Enterococcus sp.): 128 µg/mL (≈ 86.5 µM)
- MIC Enterococcus faecium (GC 4557) (Enterococcus sp.): 128 µg/mL (≈ 86.5 µM)
- MIC Enterococcus faecalis (GC 2242) (Enterococcus sp.; strain GC 2242): 128 µg/mL (≈ 86.5 µM)
- MIC Enterococcus faecalis (GC 2691) (Enterococcus sp.; strain GC 2691): 128 µg/mL (≈ 86.5 µM)
- MIC Enterococcus faecalis (GC 3059) (Enterococcus sp.; strain GC 3059): 128 µg/mL (≈ 86.5 µM)
- MIC Streptococcus agalactiae (GC 4564) (Streptococcus sp.): 128 µg/mL (≈ 86.5 µM)
- MIC Streptococcus pneumoniae (ATCC 6301) (Streptococcus sp.): 128 µg/mL (≈ 86.5 µM)
- MIC Streptococcus pneumoniae (GC 1894) (Streptococcus sp.): 64 µg/mL (≈ 43.3 µM)
- MIC Streptococcus pneumoniae (GC 4565) (Streptococcus sp.): 64 µg/mL (≈ 43.3 µM)
- MIC Streptococcus pyogenes (GC 4563) (Streptococcus sp.): 128 µg/mL (≈ 86.5 µM)
- MIC Streptococcus pneumoniae (ATCC 6301) (Streptococcus sp.; strain ATCC 6301): 128 µg/mL (≈ 86.5 µM)
- MIC Streptococcus pneumoniae (GC 1894) (Streptococcus sp.; strain GC 1894): 64 µg/mL (≈ 43.3 µM)
- MIC Streptococcus pyogenes (GC 4563) (Streptococcus sp.; strain GC 4563): 128 µg/mL (≈ 86.5 µM)
- MIC Streptococcus agalactiae (GC 4564) (Streptococcus sp.; strain GC 4564): 128 µg/mL (≈ 86.5 µM)
- MIC Streptococcus pneumoniae (GC 4565) (Streptococcus sp.; strain GC 4565): 64 µg/mL (≈ 43.3 µM)
- MIC Staphylococcus aureus (ATCC 29213) (Staphylococcus sp.; strain ATCC 29213): >128 µg/mL
- MIC Staphylococcus aureus (GC 1131) (Staphylococcus sp.; strain GC 1131): >128 µg/mL
- MIC Staphylococcus aureus (GC 3051) (Staphylococcus sp.; strain GC 3051): >128 µg/mL
- MIC Staphylococcus aureus (GC 3053) (Staphylococcus sp.; strain GC 3053): 128 µg/mL (≈ 86.5 µM)
- MIC Staphylococcus aureus (GC 4541) (Staphylococcus sp.; strain GC 4541): >128 µg/mL
- MIC Staphylococcus aureus (GC 4542) (Staphylococcus sp.; strain GC 4542): >128 µg/mL
- MIC Staphylococcus aureus-SMITH (GC 4543) (Staphylococcus sp.; strain GC 4543): >128 µg/mL
- MIC Staphylococcus aureus (GC 4544) (Staphylococcus sp.; strain GC 4544): >128 µg/mL
- MIC Staphylococcus aureus (GC 4545) (Staphylococcus sp.; strain GC 4545): >128 µg/mL
- MIC Staphylococcus haemolyticus (GC 4546) (Staphylococcus sp.; strain GC 4546): >128 µg/mL
- MIC Coagulase Negative Staphylococcus (GC 4547) (Staphylococcus sp.; strain GC 4547): 128 µg/mL (≈ 86.5 µM)
- MIC Coagulase Negative Staphylococcus (GC 4548) (Staphylococcus sp.; strain GC 4548): >128 µg/mL
- MIC Coagulase Negative Staphylococcus (GC 4549) (Staphylococcus sp.; strain GC 4549): 128 µg/mL (≈ 86.5 µM)
- MIC Coagulase Negative Staphylococcus (GC 4551) (Staphylococcus sp.; strain GC 4551): >128 µg/mL
- MIC Coagulase Negative Staphylococcus (GC 6257) (Staphylococcus sp.; strain GC 6257): >128 µg/mL

Reference: patent publication US6914045B2, “Glycopeptide antibiotics” (Wyeth Holdings Corporation, priority 2001, dated 2005)
